In patent publication US20060263403A1, “Compositions and methods for controlling insects involving the tyramine receptor” (priority 2003, published 2006):
Where two headings read alike, the source gives them in different places.

Legend:
[1] = tested on: S2 cells transfected with pAC lacking an insert; experiment: Intracellular calcium assay in S2 cells transfected with pAC lacking an insert; assay type: cell-based, Drosophila melanogaster; details: 10 μM TA, compared to untransfected S2 cells
Procedure: (§1) Cells are washed once with insect saline buffer. Cells are collected by scraping and suspended at 1×10^6 cells/ml in insect saline buffer with 5 μM Fura-2 AM. Cells are incubated at 23° C. for 1 hr in the dark, centrifuged, suspended in 1 ml insect saline buffer, and used immediately for calcium measurements. […] This assay is performed four separate times. Data are normalized by dividing each value by the background fluorescence at the beginning of the assay before adding test ligand.

[2] = tested on: S2 cells transfected with plasmid lacking TyrR; experiment: cAMP assay in control S2 cells transfected with plasmid lacking TyrR; assay type: cell-based, Drosophila melanogaster; details: TA up to 100 μM, compared to non-transfected cells
Procedure: (§2) Twenty four hours before cell treatment, 300,000 cells from clone#2 and control cells are plated in 1 ml media with 25 μg blasticidin/ml into 12 well dishes (4.5 cm^2). For cell treatment, the media is aspirated and 1 ml PBS with 300 μM IBMX (3-isobutyl-1-methylxanthine) and the test reagent is added. […] After 10 min incubation, the PBS is aspirated and cells are incubated with 70% ethanol for 12 hours at −20° C. The cellular debris is centrifuged, and then the supernatant is removed and lyophilized to dryness. The amount of cAMP in the extract is determined by using a cAMP binding protein from the ^3H-cAMP Biotrak Assay System (Amersham Biosciences, Piscataway, N.J.) as per the manufacturer's instructions. Cell treatment is performed 3 times with duplicates at each concentration. To test the effects of calcium chelation on cAMP levels, the cells are incubated with 20 μM BAPTA/AM for 10 min before the addition of TA.

[3] = biological target: T1, Drosophila melanogaster tyramine receptor (TyrR) (Drosophila melanogaster, UniProt P22270, C261Y); experiment: Intracellular calcium assay (Fura-2 AM) in S2 cells stably expressing pAC-TyrR; assay type: cell-based; details: for change in [Ca2+]i in response to plant essential oil: 25 μM, compared to EtOH treatment
T1 construct: The open reading frame encodes a protein of 601 amino acids; expressed in transfected cells
Procedure: as §1

[4] = biological target: T1, Drosophila melanogaster tyramine receptor (TyrR); experiment: cell-based; assay type: cell-based; details: for decrease in cAMP production: 25 μM, vs ethanol-treated cells 0.9056±0.078 pmol cAMP
Procedure: as §2

[5] = biological target: T1, Drosophila melanogaster tyramine receptor (TyrR); experiment: biochemical; assay type: binding
Procedure: All steps are performed at 4° C. or on ice. Cells grown in Drosophila media are harvested in the same media by scraping from the dishes and then rinsing dishes with PBS. The cells are centrifuged at 1000 g for 3 min, washed once with PBS and centrifuged again as previously described. The cells are suspended in ice cold hypotonic buffer (10 mM Tris-Cl, pH 7.4), incubated on ice for 10 min, and lysed using a glass dounce homogenizer and tight glass pestle (Kontes Glass Co., Vineland, N.J.) with 10 strokes. Nuclei are pelleted by centrifugation at 600 g for 5 min. The supernatant is decanted and centrifuged at 30,000 g for 30 min to pellet a crude membrane fraction. The pellet is suspended in binding buffer (50 mM Tris-Cl, 5 mM MgCl2, pH 7.4). Protein concentration is determined by the Bradford Assay (Bio-Rad Laboratories, Hercules, Calif.). Membranes are frozen on dry ice then stored at −75° C. in aliquots.
For the receptor binding assay, radioligand binding is performed in 500 μl binding buffer containing 10-50 μg membrane protein and 4 nM ^3H-tyramine. The binding reaction is incubated at 23° C. in the presence and absence of 10 μM unlabeled tyramine. Reactions are terminated after 60 min by addition of 3 ml ice cold binding buffer and filtered over GF/C filters that has been soaked for 30 min in 0.3% polyethylenimine. Filters are rinsed one additional time with 3 ml binding buffer. […] The binding activity of tyramine receptor is also studied in the presence and absence of five plant essential oils, shown in FIG. 1. Binding data is analyzed by Scatchard plots using the software GraphPad Prism (San Diego, Calif.). All binding analyses are performed 3 times with duplicate samples in each assay.
The binding activity of ^3H-tyramine to membranes expressing the tyramine receptor is performed in the presence and absence of five plant essential oils. These chemicals are selected based on their insecticidal activity and the absence or presence and location of the hydroxyl group within the molecule. […] The specific activity is calculated as the difference between counts in the presence and absence of test chemical.

[6] = biological target: T1, Drosophila melanogaster tyramine receptor (TyrR); details: saturation binding, 0.1-30 nM 3H-tyramine, membranes of clone#2 S2 cells; read-out: Kd for specific binding
[7] = tested on: tyramine receptor mutant (TyrR^neo30) Drosophila melanogaster; assay type: in vivo; details: for toxicity against TyrR^neo30 strain compared with wild type: topical application
Procedure: (§3) Quantitative Structure Activity Relationships (QSARs) for five monoterpenoid plant essential oils is determined against wild type and tyramine receptor mutant (TyrR^neo30) Drosophila melanogaster strains. […] In addition, monocyclic-unsaturated alcohol (a-terpenoil), and a monocylic di-unsaturated ketone (L-carvone) are also tested. […] Acetonic solutions of plant essential oils are prepared and different concentrations of each, that gave from 10%-100% mortality, are applied by topical application. Three replicates, with 5 flies per replicate, are used for each concentration. Controls treated with the same volume (0.5 μl/fly) of acetone. […] To determine whether the tyramine receptor is involved in the toxicity of tested plant essential oils, tyramine receptor mutant (TyrR^neo30) Drosophila melanogaster strain is topically treated with a dose equivalent to the determined LD50 for wild type strain. The mortality is calculated 24 hrs after treatment. Three replicates and 5 insects per replicate are used for the bioassay of each chemical. This bioassay is repeated five times.

[8] = tested on: wild type Drosophila melanogaster; experiment: Topical toxicity bioassay against wild type Drosophila melanogaster fly; assay type: in vivo; details: for Wild type-calculated LD50 values: topical application, probit analysis; for % Mortality at LD50 of wild type Drosophila melanogaster strain: Wild type: topical dose equal to wild type LD50, 24 h after treatment
Procedure: as §3

T1 sequence (P22270 27-601 C261Y): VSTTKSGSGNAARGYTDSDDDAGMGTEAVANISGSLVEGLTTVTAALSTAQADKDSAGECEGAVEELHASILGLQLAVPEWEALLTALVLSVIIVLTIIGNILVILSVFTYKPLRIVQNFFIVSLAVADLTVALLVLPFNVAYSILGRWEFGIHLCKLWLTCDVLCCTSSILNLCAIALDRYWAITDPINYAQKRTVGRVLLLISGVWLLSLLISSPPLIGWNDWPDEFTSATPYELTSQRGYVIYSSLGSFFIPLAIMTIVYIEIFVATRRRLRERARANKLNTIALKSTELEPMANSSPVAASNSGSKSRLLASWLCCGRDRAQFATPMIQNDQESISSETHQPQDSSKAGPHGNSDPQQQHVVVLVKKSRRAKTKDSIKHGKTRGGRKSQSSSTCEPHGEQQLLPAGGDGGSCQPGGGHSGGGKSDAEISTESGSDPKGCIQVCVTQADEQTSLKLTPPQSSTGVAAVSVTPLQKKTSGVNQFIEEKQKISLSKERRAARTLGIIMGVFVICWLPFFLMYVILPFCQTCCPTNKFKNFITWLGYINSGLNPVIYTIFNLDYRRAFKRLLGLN

NCCc1ccc(O)cc1 [Tyramine (TA), Tyramine]
effect on [Ca2+]i in control cells [1]: does not increase the level of [Ca^2+]i
effect on cAMP levels in control cells [2]: significant effects on cAMP levels as compared to non-transfected cells are not produced
change in [Ca2+]i in response to TA ([3]; 1 μM TA, clone#2 cells): rapid increase in [Ca^2+]i
duration of transient peak in [Ca2+]i level ([3]; TA application): ~20 s
lowest concentration that can increase [Ca2+]i levels ([3]; clone#2 cells): 20 nM
IC50 [4]: 5.8 µM
decrease in the basal level of cAMP ([4]; TA 10 μM, 300 μM IBMX, basal 0.601±0.080 pmol cAMP): 18%
Ki [5]: 1.27 µM
affinity of TA relative to DL-octopamine for TyrR ([5]; ratio of Ki values): about 22.58 fold

NCCc1c[nH]cn1 [Histamine (His), Histamine]
Ki [5]: 193 ± 16.8 µM

NCCc1ccc(O)c(O)c1 [Dopamine (DA), Dopamine]
Ki [5]: 57.5 ± 3.91 µM

CC(=O)OCOC(=O)CN(CC(=O)OCOC(C)=O)c1ccccc1OCCOc1ccccc1N(CC(=O)OCOC(C)=O)CC(=O)OCOC(C)=O [BAPTA/AM]
effect on TA-induced increase in free [Ca2+]i ([3]; 20 μM BAPTA/AM, 1 μM TA): inhibit the increase in free [Ca^2+]i

NCCc1ccc(O)cc1 [^3H-tyramine]
Kd [6]: 0.00256 µM

NCCc1c[nH]c2ccc(O)cc12 [Serotonin (SE), Serotonin]
Ki [5]: 89.5 ± 9.01 µM

CC1=CCC(C(C)(C)O)CC1 (stereo not drawn) [a-terpineol, p-menth-1-en-8-ol]
change in [Ca2+]i in response to plant essential oil [3]: remarkable increase in [Ca^2+]i
decrease in cAMP production ([4]; 300 μM IBMX): 22%

Cc1ccc(N(CC2=NCCN2)c2cccc(O)c2)cc1 [Phentolamine]
Ki [5]: 0.125 ± 0.02 µM

CN(C)CCCN1c2ccccc2Sc2ccc(Cl)cc21 [Chlorpromazine]
Ki [5]: 0.193 ± 0.05 µM

COC(=O)[C@@H]1[C@H]2C[C@H]3c4[nH]c5ccccc5c4CCN3C[C@@H]2CC[C@@H]1O [Yohimbine]
Ki [5]: 0.071 ± 0.001 µM

C=C(C)[C@@H]1CC=C(C)C(=O)C1 [L-carvone, p-mentha-6,8-dien-2-one]
change in [Ca2+]i in response to plant essential oil [3]: remarkable increase in [Ca^2+]i
decrease in cAMP production ([4]; 300 μM IBMX): 24%
toxicity against TyrR^neo30 strain compared with wild type [7]: does not affect the toxicity
% Mortality at LD50 of wild type Drosophila melanogaster strain: TyrR^neo30 ([7]; topical dose equal to wild type LD50, 24 h after treatment): 38.7%
Wild type-calculated LD50 values [8]: 2.3 μg/fly
% Mortality at LD50 of wild type Drosophila melanogaster strain: Wild type [8]: 37.3%
toxicity of L-carvone relative to a-terpineol ([8]; wild type strain): about 5 fold

Cc1ccc(C(C)C)cc1 [p-cymene, 1-methyl-4-(1-methylethyl)benzene]
change in [Ca2+]i in response to plant essential oil [3]: slight increase in [Ca^2+]i
decrease in cAMP production ([4]; 300 μM IBMX): 13%
% Mortality at LD50 of wild type Drosophila melanogaster strain: TyrR^neo30 ([7]; in vivo): 56.0%
toxicity against TyrR^neo30 strain compared with wild type [7]: does not affect the toxicity
Wild type-calculated LD50 values [8]: 15.5 μg/fly
% Mortality at LD50 of wild type Drosophila melanogaster strain: Wild type [8]: 57.3%

NCC(O)c1ccc(O)cc1 (racemic) [Octopamine (OA), DL-octopamine]
Ki ([5]; competitive binding vs 4 nM 3H-tyramine, membranes from Schneider Drosophila cells expressing TyrR, mean and standard deviation, read-out: Ki): 28.7 µM
